Columns and labels:
Assay in all cases: relative viability (nuclei count vs DMSO), 5 days (fraction); higher = more cells survive
Axitinib + Bortezomib = compound: CNC(=O)c1ccccc1Sc1ccc2c(/C=C/c3ccccn3)n[nH]c2c1 [Axitinib] + CC(C)C[C@H](NC(=O)[C@H](Cc1ccccc1)NC(=O)c1cnccn1)B(O)O [Bortezomib] (partner 0.002 µM)
Summary of the method: (§1)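 The day after seeding in 1536-well plates, lung cancer cell lines were treated by pin tool with a single drug, or with a fixed anchor-drug dose together with five library-drug doses (not always all listed) in √10 steps. After 5 days, a combined fix-and-stain solution (final 0.05% Triton X-100, 1% formaldehyde, 1 ug/ml Hoechst) was added. Nuclei counted on 4× images gave relative viability as treated counts over vehicle counts, reported as the median of duplicate plates.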

[1] = compound: CC1=CC=C(C=C1)C(=O)CN2C3=C(CCCC3)SC2=N [Pifithrin_alpha] + CS(=O)(=O)CCNCc1ccc(-c2ccc3ncnc(Nc4ccc(OCc5cccc(F)c5)c(Cl)c4)c3c2)o1 [Lapatinib] (partner 2 µM)
Summary of the method: as §1

[2] = compound: CC1=CC=C(C=C1)C(=O)CN2C3=C(CCCC3)SC2=N [Pifithrin_alpha] + CC1(C)CCC(c2ccc(Cl)cc2)=C(CN2CCN(c3ccc(C(=O)NS(=O)(=O)c4ccc(N[C@H](CCN5CCOCC5)CSc5ccccc5)c(S(=O)(=O)C(F)(F)F)c4)cc3)CC2)C1 [Navitoclax] (partner 0.5 µM)
Summary of the method: as §1

Axitinib + Linsitinib = compound: CNC(=O)c1ccccc1Sc1ccc2c(/C=C/c3ccccn3)n[nH]c2c1 [Axitinib] + C[C@]1(O)C[C@@H](c2nc(-c3ccc4ccc(-c5ccccc5)nc4c3)c3c(N)nccn32)C1 [Linsitinib] (partner 1 µM)
Summary of the method: as §1

| Cell Line | relative viability (Axitinib + Bortezomib; first compound 0.005 µM) | relative viability (Axitinib + Bortezomib; first compound 0.01581 µM) | relative viability (Axitinib + Bortezomib; first compound 0.05 µM) | relative viability (Axitinib + Bortezomib; first compound 0.1581 µM) | relative viability (Axitinib + Bortezomib; first compound 0.5 µM) | relative viability ([1]; first compound 1 µM) | relative viability ([1]; first compound 3.162 µM) | relative viability ([1]; first compound 10 µM) | relative viability ([1]; first compound 31.62 µM) | relative viability ([1]; first compound 100 µM) | relative viability ([2]; first compound 1 µM) | relative viability ([2]; first compound 3.162 µM) | relative viability ([2]; first compound 10 µM) | relative viability ([2]; first compound 31.62 µM) | relative viability ([2]; first compound 100 µM) | relative viability (Axitinib + Linsitinib; first compound 0.005 µM) | relative viability (Axitinib + Linsitinib; first compound 0.01581 µM) | relative viability (Axitinib + Linsitinib; first compound 0.05 µM) | relative viability (Axitinib + Linsitinib; first compound 0.1581 µM) | relative viability (Axitinib + Linsitinib; first compound 0.5 µM) |
| --- | --- | --- | --- | --- | --- | --- | --- | --- | --- | --- | --- | --- | --- | --- | --- | --- | --- | --- | --- | --- |
| NCI-H1755 | 0.973 | 0.973 | 0.932 | 0.971 | 0.967 | 0.96 | 1.01 | 0.966 | 0.812 | 1.23 | 0.935 | 0.973 | 0.888 | 0.628 | 0.966 | 1.04 | 0.963 | 0.99 | 1.02 | 1.03 |
| NCI-H1666 | 0.938 | 0.881 | 0.97 | 0.922 | 0.92 | 0.503 | 0.405 | 0.286 | 0.337 | 0.365 | 0.84 | 0.61 | 0.432 | 0.635 | 0.354 | 0.926 | 0.917 | 0.786 | 0.8 | 0.912 |
| PC-3 [JPC-3] | 0.98 | – | 0.807 | 0.833 | 0.964 | 0.392 | 0.421 | 0.401 | 0.414 | 0.326 | 0.749 | 0.74 | 0.746 | 0.789 | 0.726 | 0.948 | – | 0.972 | 0.944 | 0.986 |
| NCI-H1975 | 0.404 | 0.357 | 0.397 | 0.394 | 0.463 | 0.895 | 0.544 | 0.655 | 0.489 | 0.761 | 0.918 | 0.848 | 0.621 | 0.616 | 0.686 | 1.17 | 1.1 | 1.09 | 0.988 | 1.18 |
| Calu-6 | 1.11 | 0.944 | 0.956 | 1.1 | 0.996 | 1.02 | 1.03 | 0.986 | 0.675 | 1.07 | 0.976 | 0.741 | 0.781 | 0.508 | 0.704 | 1.08 | 0.97 | 1.06 | 1.01 | 1.07 |
| EBC-1 | 0.631 | 0.657 | 0.521 | 0.565 | 0.629 | 0.21 | 0.225 | 0.192 | 0.213 | 0.165 | 0.386 | 0.318 | 0.29 | 0.221 | 0.224 | 0.935 | 0.874 | 0.884 | 0.904 | 1.1 |
| LC-2-ad | 1.1 | 1.06 | 0.93 | 1.04 | 1.16 | 0.986 | 1.03 | 0.935 | 0.576 | 0.759 | 0.462 | 0.323 | 0.408 | 0.249 | 0.32 | 0.843 | 0.844 | 0.887 | 0.833 | 1.01 |
